Measurements published in patent publication US20030022158A1, “Peptides from the TT virus sequence and monospecific antibodies binding to the TT virus” (priority 1999, published 2003).

Test system: human IgG antibodies in human serum samples
Assay: EIA of human antibody reactivities to overlapping synthetic peptides of TTV ORF1 and ORF2 (Tables 2 and 3)
Type: binding
Details: for optical density (OD) at 405 nm: serum diluted 1:100, OD over 0.500 considered positive; for optical density (OD) at 405 nm, EIA reactivity of human serum sample 1: serum sample 1, negative for TTV DNA by PCR; for optical density (OD) at 405 nm, EIA reactivity of human serum sample 1 / optical density (OD) at 405 nm, EIA reactivity of human serum sample 2 / optical density (OD) at 405 nm, EIA reactivity of human serum sample 3 / optical density (OD) at 405 nm, EIA reactivity of human serum sample 4 / optical density (OD) at 405 nm, EIA reactivity of human serum sample 5 / optical density (OD) at 405 nm, EIA reactivity of human serum sample 6 / optical density (OD) at 405 nm, EIA reactivity of human serum sample 7 / optical density (OD) at 405 nm, EIA reactivity of human serum sample 9 / optical density (OD) at 405 nm, EIA reactivity of human serum sample 11 / optical density (OD) at 405 nm, EIA reactivity of human serum sample 18 / optical density (OD) at 405 nm, EIA reactivity of human serum sample 36 / optical density (OD) at 405 nm, EIA reactivity of human serum sample 48 / optical density (OD) at 405 nm, EIA reactivity of human serum sample 98 / optical density (OD) at 405 nm, EIA reactivity of human serum sample 110 / optical density (OD) at 405 nm, EIA reactivity of human serum sample 155 / optical density (OD) at 405 nm, EIA reactivity of human serum sample 157: serum 1:100, peptide coated 10 μg/ml, OD over 0.500 positive; for optical density (OD) at 405 nm, EIA reactivity of human serum sample 2: serum sample 2, negative for TTV DNA by PCR; for optical density (OD) at 405 nm, EIA reactivity of human serum sample 3: serum sample 3, negative for TTV DNA by PCR; for optical density (OD) at 405 nm, EIA reactivity of human serum sample 4: serum sample 4, negative for TTV DNA by PCR; for optical density (OD) at 405 nm, EIA reactivity of human serum sample 5: serum sample 5, negative for TTV DNA by PCR; for optical density (OD) at 405 nm, EIA reactivity of human serum sample 6: serum sample 6, negative for TTV DNA by PCR; for optical density (OD) at 405 nm, EIA reactivity of human serum sample 7: serum sample 7, negative for TTV DNA by PCR; for optical density (OD) at 405 nm, EIA reactivity of human serum sample 9: serum sample 9, positive for TTV DNA by PCR; for optical density (OD) at 405 nm, EIA reactivity of human serum sample 11: serum sample 11, negative for TTV DNA by PCR; for optical density (OD) at 405 nm, EIA reactivity of human serum sample 18: serum sample 18, positive for TTV DNA by PCR; for optical density (OD) at 405 nm, EIA reactivity of human serum sample 36: serum sample 36, positive for TTV DNA by PCR; for optical density (OD) at 405 nm, EIA reactivity of human serum sample 48: serum sample 48, positive for TTV DNA by PCR; for optical density (OD) at 405 nm, EIA reactivity of human serum sample 98: serum sample 98, positive for TTV DNA by PCR; for optical density (OD) at 405 nm, EIA reactivity of human serum sample 110: serum sample 110, positive for TTV DNA by PCR; for optical density (OD) at 405 nm, EIA reactivity of human serum sample 155: serum sample 155, positive for TTV DNA by PCR; for optical density (OD) at 405 nm, EIA reactivity of human serum sample 157: serum sample 157, positive for TTV DNA by PCR; for human reactivity to peptide (reactive peptides within ORF1): tested human sera, EIA
From the text: Overlapping peptides (18 amino acids in length containing an 8 amino acid overlap) corresponding to regions of the ORFI and ORF2 of TTV (TABLE 1; Genebank accession no AB008394) were produced by a multiple peptide synthesizer (Syro, Syntex, Germany) using standard Fmoc chemistry (Sallberg et al., Immunology Letters, 30:59 68 (1991), herein expressly incorporated by reference in its entirety).
The EIAs used to identify which peptides interacted with human sera followed protocols known in the art. (See Zhang et al., J Gen Virol, 78:2735-2746 (1997), herein expressly incorporated by reference in its entirety). Briefly, microplates (Nunc, Denmark) were coated for 48 hours with synthetic peptides at a concentration of 10 μg/ml in 0.05M sodium carbonate buffer pH 9.6. After blocking for 2 hours at room temperature with phosphate buffered saline containing 1% bovine serum albumin, 2% goat serum and 0.05% Tween 20 (dilution buffer) the plates were incubated with human sera diluted 1:100 in dilution buffer. Bound human IgG was detected by incubation with anti-human IgG antibodies conjugated to alkaline phosphatase (Sigma Chemicals, St. Louis, Mo.). The plates were developed by the addition of […] (Sigma) and the optical densities were determined at 405 nm.

[1] = human serum sample 1, negative for TTV DNA by PCR
[2] = human serum sample 2, negative for TTV DNA by PCR
[3] = human serum sample 3, negative for TTV DNA by PCR
[4] = human serum sample 4, negative for TTV DNA by PCR
[5] = human serum sample 5, negative for TTV DNA by PCR
[6] = human serum sample 6, negative for TTV DNA by PCR
[7] = human serum sample 7, negative for TTV DNA by PCR
[8] = human serum sample 9, positive for TTV DNA by PCR
[9] = human serum sample 11, negative for TTV DNA by PCR
[10] = human serum sample 18, positive for TTV DNA by PCR
[11] = human serum sample 36, positive for TTV DNA by PCR
[12] = human serum sample 48, positive for TTV DNA by PCR
[13] = human serum sample 98, positive for TTV DNA by PCR
[14] = human serum sample 110, positive for TTV DNA by PCR
[15] = human serum sample 155, positive for TTV DNA by PCR
[16] = human serum sample 157, positive for TTV DNA by PCR

| Sequence | optical density (OD) at 405 nm [1] [OD] | optical density (OD) at 405 nm [2] [OD] | optical density (OD) at 405 nm [3] [OD] | optical density (OD) at 405 nm [4] [OD] | optical density (OD) at 405 nm [5] [OD] | optical density (OD) at 405 nm [6] [OD] | optical density (OD) at 405 nm [7] [OD] | optical density (OD) at 405 nm [8] [OD] | optical density (OD) at 405 nm [9] [OD] | optical density (OD) at 405 nm [10] [OD] | optical density (OD) at 405 nm [11] [OD] | optical density (OD) at 405 nm [12] [OD] | optical density (OD) at 405 nm [13] [OD] | optical density (OD) at 405 nm [14] [OD] | optical density (OD) at 405 nm [15] [OD] | optical density (OD) at 405 nm [16] [OD] | optical density (OD) at 405 nm, EIA reactivity of human serum sample 1 [OD] | optical density (OD) at 405 nm, EIA reactivity of human serum sample 2 [OD] | optical density (OD) at 405 nm, EIA reactivity of human serum sample 3 [OD] | human reactivity to peptide (reactive peptides within ORF1) | further results |
| --- | --- | --- | --- | --- | --- | --- | --- | --- | --- | --- | --- | --- | --- | --- | --- | --- | --- | --- | --- | --- | --- |
| KINTMPPFLDTELTAPS (Peptide Immunogen) [compound 18, overlapping synthetic peptide of TTV ORF1] | 0.09 | 0.09 | 0.15 | 0.29 | 0.07 | 0.13 | 0.62 | 0.08 | 0.28 | 0.07 | 0.13 | 0.12 | 0.04 | 0.08 | 0.19 | 0.18 | 0.00 | 0.00 | 0.00 | Reactive | optical density (OD) at 405 nm, EIA reactivity of human serum sample 4: 0.00 OD; optical density (OD) at 405 nm, EIA reactivity of human serum sample 5: 0.00 OD; optical density (OD) at 405 nm, EIA reactivity of human serum sample 6: 0.00 OD; optical density (OD) at 405 nm, EIA reactivity of human serum sample 7: 0.00 OD; optical density (OD) at 405 nm, EIA reactivity of human serum sample 9: 0.00 OD; optical density (OD) at 405 nm, EIA reactivity of human serum sample 11: 0.00 OD; optical density (OD) at 405 nm, EIA reactivity of human serum sample 18: 0.00 OD; optical density (OD) at 405 nm, EIA reactivity of human serum sample 36: 0.00 OD; optical density (OD) at 405 nm, EIA reactivity of human serum sample 48: 0.00 OD; optical density (OD) at 405 nm, EIA reactivity of human serum sample 98: 0.00 OD; optical density (OD) at 405 nm, EIA reactivity of human serum sample 110: 0.00 OD; optical density (OD) at 405 nm, EIA reactivity of human serum sample 155: 0.00 OD; optical density (OD) at 405 nm, EIA reactivity of human serum sample 157: 0.00 OD |
| QKESLLFPPVKLLRRVP (Peptide Immunogen) [compound 69, overlapping synthetic peptide of TTV ORF1] | 0.10 | 0.15 | 0.16 | 0.14 | 0.12 | 0.51 | 0.11 | 0.09 | 0.13 | 0.08 | 0.08 | 0.09 | 0.10 | 0.11 | 0.15 | 0.21 |  |  |  | Reactive |  |
| VLICGENTVSRNYATHS (Peptide Immunogen) [compound 10, overlapping synthetic peptide of TTV ORF1] | 0.09 | 0.10 | 0.11 | 0.11 | 0.11 | 0.13 | 1.09 | 0.09 | 0.12 | 0.07 | 0.07 | 0.11 | 0.06 | 0.09 | 0.12 | 0.12 | 0.09 | 0.11 | 0.10 | Reactive | optical density (OD) at 405 nm, EIA reactivity of human serum sample 4: 0.09 OD; optical density (OD) at 405 nm, EIA reactivity of human serum sample 5: 0.08 OD; optical density (OD) at 405 nm, EIA reactivity of human serum sample 6: 0.11 OD; optical density (OD) at 405 nm, EIA reactivity of human serum sample 7: 0.08 OD; optical density (OD) at 405 nm, EIA reactivity of human serum sample 9: 0.09 OD; optical density (OD) at 405 nm, EIA reactivity of human serum sample 11: 0.10 OD; optical density (OD) at 405 nm, EIA reactivity of human serum sample 18: 0.09 OD; optical density (OD) at 405 nm, EIA reactivity of human serum sample 36: 0.07 OD; optical density (OD) at 405 nm, EIA reactivity of human serum sample 48: 0.08 OD; optical density (OD) at 405 nm, EIA reactivity of human serum sample 98: 0.08 OD; optical density (OD) at 405 nm, EIA reactivity of human serum sample 110: 0.08 OD; optical density (OD) at 405 nm, EIA reactivity of human serum sample 155: 0.11 OD; optical density (OD) at 405 nm, EIA reactivity of human serum sample 157: 0.13 OD |
